#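 All cell lines were grown in 96-well plates and treated with compound for 48 hours. GI50 marks 50% less growth. At the TGI there is no net growth.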
# How the values were obtained:
# Assay in all cases: NCI anticancer screen, dose series, 48 h
# [1] = test system: UO-31 renal
# [2] = test system: MOLT-4 leukemia
# [3] = test system: 786-0 renal
# [4] = test system: HOP-92 NSCLC
# [5] = test system: SK-MEL-2 melanoma
# [6] = test system: SF-295 CNS
# [7] = test system: K-562 leukemia
# [8] = test system: KM12 colon
# [9] = test system: SK-OV-3 ovarian
# [10] = test system: MDA-MB-231 breast
SMILES,TGI [1],TGI [2],TGI [3],TGI [4],TGI [5],TGI [6],TGI [7],TGI [8],TGI [9],GI50 [1],GI50 [2],GI50 [3],GI50 [4],GI50 [5],GI50 [7],GI50 [8],GI50 [9],GI50 [10],TGI [10],GI50 [6]
Cc1nc2c(n1CC(C)(C)C)C(=O)c1ccccc1C2=O,> 100 µM,> 100 µM,> 100 µM,> 100 µM,> 100 µM,> 100 µM,> 100 µM,> 100 µM,> 100 µM,–,–,–,–,–,–,–,–,–,–,–
COC(=O)C1=CCON(c2ccccc2)C1c1ccccc1 (stereo unspecified),> 100 µM,> 100 µM,> 100 µM,–,> 100 µM,–,> 100 µM,> 100 µM,> 100 µM,–,–,–,–,–,–,–,–,–,–,–
O=c1nc(-c2ccccc2)c2c3c(cccn13)CCC2,> 100 µM,> 100 µM,> 100 µM,> 100 µM,> 100 µM,> 100 µM,> 100 µM,> 100 µM,> 100 µM,–,–,–,–,–,–,–,–,–,–,–
Fc1cccc(Cl)c1C1SCc2nc3ccccc3n21 (stereo unspecified),> 100 µM,52.1 µM,> 100 µM,37.8 µM,51 µM,95.2 µM,> 100 µM,59.5 µM,62.2 µM,–,–,–,–,–,–,–,–,–,–,–
O=C1[C@@H](c2ccc(Cl)cc2)[C@H]2CC=C[C@H]2N1O,> 100 µM,> 100 µM,> 100 µM,–,> 100 µM,> 100 µM,> 100 µM,> 100 µM,> 100 µM,–,–,–,–,–,–,–,–,–,–,–
O=C1c2ccccc2N2OC3(N4CCCC4)CCCC3C12c1ccccc1 (stereo unspecified),> 100 µM,> 100 µM,> 100 µM,> 100 µM,–,> 100 µM,> 100 µM,–,> 100 µM,–,–,–,–,–,–,–,–,–,–,–
COC(=O)C1=C(OC(=O)c2ccc(Cl)cc2)C(C(=O)OC)[C@@]2(O)[C@@H](C(=O)OC)C(c3ccccc3C(F)(F)F)C[C@@H]1[C@@H]2C(=O)OC (stereo partly specified),31.6 µM,7.86 µM,> 100 µM,> 100 µM,33.9 µM,–,> 100 µM,64.2 µM,60 µM,12.6 µM,2.7 µM,4.86 µM,6.27 µM,15.5 µM,3.36 µM,23.9 µM,5.99 µM,2.07 µM,6.19 µM,–
CC(C)c1cccc(C(C)C)c1NC(=O)C(=O)C(C(=O)c1ccccc1-c1ccccc1)C1OC(=O)c2ccccc21 (stereo unspecified),36.5 µM,74.1 µM,36.8 µM,–,32.1 µM,37.6 µM,68.3 µM,32.9 µM,–,–,–,–,–,–,–,–,–,–,–,–
COC(=O)c1nc(NN)[nH]c(=O)c1CCCCCc1c(C(=O)OC)[nH]c(NN)cc1=O,> 100 µM,> 100 µM,> 100 µM,> 100 µM,> 100 µM,> 100 µM,> 100 µM,> 100 µM,> 100 µM,–,–,–,–,–,–,–,–,–,–,–
CCc1ccccc1NC(=O)C(=O)C(C(=O)c1ccc(OC)cc1)c1ccc(OC)cc1 (stereo unspecified),> 100 µM,> 100 µM,> 100 µM,–,> 100 µM,> 100 µM,> 100 µM,> 100 µM,> 100 µM,–,–,–,–,–,–,–,–,–,–,–
Cc1cc([N+](=O)[O-])c(C)c2c1[nH]c1ccc(/C(CCC3CCCC3)=N\N)cc12,30 µM,39 µM,28 µM,–,30.2 µM,38.1 µM,55.2 µM,34.9 µM,–,–,–,–,–,–,–,–,–,–,–,–
Clc1ccc([O][In]([O]c2ccc(Cl)cn2)[O]c2ccc(Cl)cn2)nc1,> 100 µM,–,> 100 µM,–,> 100 µM,47.5 µM,–,> 100 µM,> 100 µM,> 100 µM,–,> 100 µM,–,> 100 µM,–,> 100 µM,64.4 µM,–,–,25.2 µM
N#CC(C#N)SCc1ccccc1,> 100 µM,> 100 µM,> 100 µM,> 87.4 µM,93 µM,> 100 µM,–,> 100 µM,> 49 µM,–,–,–,–,–,–,–,–,–,–,–
COc1cc2nncc(Sc3cnnc4ccccc34)c2cc1OC,47.9 µM,54.5 µM,96.9 µM,> 100 µM,36.2 µM,91.6 µM,> 100 µM,56.5 µM,76.6 µM,–,–,–,–,–,–,–,–,–,–,–
CC1(C)C(=O)C(O)=CC2C1=CCC1C2(C)C(=O)CC2(C)C(C(C)(O)C(=O)CC(O)C(C)(C)O)C(O)CC12C (stereo unspecified),4.49 µM,> 81.8 µM,5.65 µM,4.56 µM,6.12 µM,13.1 µM,> 80.2 µM,> 100 µM,28.9 µM,–,–,–,–,–,–,–,–,–,–,–
CCC1(Br)C(=O)NC(=O)N(C2CC(O)C(CO)O2)C1N=[N+]=[N-] (stereo unspecified),> 100 µM,> 100 µM,> 100 µM,> 100 µM,> 100 µM,> 100 µM,> 100 µM,–,> 100 µM,–,–,–,–,–,–,–,–,–,–,–
CC(C)(C)OC(=O)NCC(C#N)CNC(=O)OC(C)(C)C,> 100 µM,> 100 µM,> 100 µM,> 100 µM,–,> 100 µM,> 100 µM,> 100 µM,> 100 µM,–,–,–,–,–,–,–,–,–,> 100 µM,–
O=[N+]([O-])c1ccc(N=Nc2c(O)[nH]c3ccc([N+](=O)[O-])cc23)cc1,59.8 µM,> 100 µM,17 µM,25.6 µM,> 100 µM,27.5 µM,> 100 µM,30.8 µM,58.5 µM,–,–,–,–,–,–,–,–,–,–,–
CC(C)N(C(C)C)[PH+]1O[PH+](N(C(C)C)C(C)C)O[PH+](N(C(C)C)C(C)C)O[PH+](N(C(C)C)C(C)C)O[PH+](N(C(C)C)C(C)C)O1.[C-]#[O+].[C-]#[O+].[C-]#[O+].[C-]#[O+].[C-]#[O+].[C-]#[O+].[C-]#[O+].[Cr].[Cr] (stereo unspecified),> 100 µM,> 100 µM,> 100 µM,> 100 µM,> 100 µM,> 100 µM,> 100 µM,> 100 µM,> 100 µM,> 100 µM,> 100 µM,> 100 µM,> 100 µM,> 100 µM,> 100 µM,> 100 µM,> 100 µM,–,–,> 100 µM
O=C(C(=O)c1ccc(Cc2ccc(C(=O)C(=O)c3ccccc3)cc2)cc1)c1ccccc1,> 100 µM,–,> 100 µM,> 100 µM,> 100 µM,> 100 µM,> 100 µM,> 100 µM,> 100 µM,–,–,–,–,–,–,–,–,–,–,–
CSc1nc2c(c(O)c(C)c(=O)n2C2OC(COC(C)=O)C(OC(C)=O)C(OC(C)=O)C2OC(C)=O)c(=O)n1C (stereo unspecified),> 100 µM,–,> 100 µM,> 100 µM,> 100 µM,> 100 µM,> 100 µM,> 100 µM,> 100 µM,–,–,–,–,–,–,–,–,–,–,–

# From PubChem BioAssay (NCI)
